Experimental data: patent publication US20080176792A1, “VEGFR-1 TARGETING PEPTIDES” (priority 2000, published 2008)
Ends that are not written are not given here.

Tests used:
[1] = test system: urothelial tumor cell line T24; assay: Phage attachment to subconfluent cell monolayer; type: cell-based, human; conditions: 1x10^8 T.U. per well
Source text: FIG. 7. Binding of selected phage clones to the human breast cancer cell line MDA-MBA435 (white bars) as well as the urothelial tumor cell lines T24 (light grey bars) and RT4 (dark grey bars). Insertless fd-tet phage were included as controls. Results are given as mean of triplicate wells relative to binding of fd-tet phage, that was set as 1. Input of phage was 1×10^8 T.U. per well. Bound phage were detected after intensive washing by infection with log phase K91 bacteria and plating of serial dilutions.
Binding of selected phage was examined with human adherent primary urothelial cells, the breast cancer cell line MDA-MB-435 and the transitional carcinoma cell lines RT4 and T24. All cells were grown to subconfluency in 48 well plates and free binding sites were blocked with 800 μl 30% FCS/DMEM (blocking medium) for 1 hour at 37° C. The blocking solution was then replaced by 200 μl 10% FCS/DMEM (washing medium) containing 1×10^8 cfu of each phage per well. After incubation for 2 hours at 4° C. to prevent unspecific endocytosis, unbound phage were removed by washing 7 times with 500 μl washing medium. For competition experiments increasing concentrations of the corresponding peptide or a control peptide (CARAC, SEQ ID NO:5) were added during the incubation. Bound phage were determined by infection with 500 μl log phase K91 culture and plating of serial dilutions. […]

human bone marrow cells = assay: Binding of single phage clones to bone marrow cells by BRASIL; type: cell-based; conditions: single phage clone; negative control fd-tet phage, positive control RGD-4C phage
Source text: Fresh human ribs removed during surgery for access to underlying tumors were sectioned to expose the bone marrow surface. No significant damage to the bone marrow was inflicted to the tissue and the morphology was well preserved during after the procedure. The bone samples were washed (gently) 5 times with ice cold DMEM/0.15% BSA (sterile filtered). The marrow was removed by gently scraping cells from the bone. Cells were washed twice by centrifugation and resuspension in DMEM/BSA to remove debris and fat. Cells were resuspended in DMEM/BSA (about 10^7 cells per ml) and incubated with a phage display library (10^9 TU) prepared as described above. After incubation for 3 hours on ice, the cells were centrifuged through an organic phase consisting of a 9:1 mixture of dibutylphthalate:cyclohexane. Centrifugation occurred for 10 min at 10,000×g. The bottom of the centrifuge tube was snap frozen at −80° C. and phage were recovered by bacterial infection as described above. The selection was repeated for 3 more rounds of BRASIL and 90 clones were sequenced.
A system has been designed to analyze the data resulting from peptide library screenings, adapted from the SAS package. The system is available upon request from the M. D. Anderson Cancer Center. […] The positive control was phage containing an RGD-4C insert, which is known to bind to bone marrow. […]

porcine bladder mucosa = assay: Dot blot chamber assay after removal of the GAG-layer; type: cell-based; conditions: 0.1M HCl for 2 min; relative to untreated mucosa set to 1
Procedure: FIG. 10. Influence of the GAG-layer on phage binding. In the dot blot chamber assay portions of a porcine bladder mucosa were treated with 0.1M HCl for 2 min prior to remove the GAG-layer. Binding to treated surface is given relative to untreated surface, that was set as 1. Bound phage were detected after intensive washing by infection with log phase K91 bacteria and plating of serial dilutions.
(§1) Removal of the glucosaminoglycan- (GAG-) layer on intact mucosa samples was performed as a dot blot chamber assay. Half of the wells were incubated with 200 μl 0.1M HCl per well for 2 min, intensely rinsed with blocking solution and both parts blocked as before. Results are given relative to fd-tet phage to untreated mucosa, that was set to 1.
(§2) Using the same assay the influence of the glucosaminoglycan (GAG) layer on binding of several phage to intact mucosa was examined. The GAG-layer was removed as described above. Half of the mucosa of human ureter and porcine bladder specimens were treated inside the dot blot chamber with […] for 2 min, extensively washed and the binding assay performed as before.

human ureter mucosa = assay: as above; type: cell-based; conditions: human ureter sample
Procedure: as §1, §2

leptin = conditions: cited from earlier work
[2] = molecular target: BSA (bovine serum albumin) (bovine, UniProt P02769 25-607); assay: phage binding to immobilized protein, recovery by bacterial infection
Chain of BSA (bovine serum albumin) (P02769 25-607 limits assumed): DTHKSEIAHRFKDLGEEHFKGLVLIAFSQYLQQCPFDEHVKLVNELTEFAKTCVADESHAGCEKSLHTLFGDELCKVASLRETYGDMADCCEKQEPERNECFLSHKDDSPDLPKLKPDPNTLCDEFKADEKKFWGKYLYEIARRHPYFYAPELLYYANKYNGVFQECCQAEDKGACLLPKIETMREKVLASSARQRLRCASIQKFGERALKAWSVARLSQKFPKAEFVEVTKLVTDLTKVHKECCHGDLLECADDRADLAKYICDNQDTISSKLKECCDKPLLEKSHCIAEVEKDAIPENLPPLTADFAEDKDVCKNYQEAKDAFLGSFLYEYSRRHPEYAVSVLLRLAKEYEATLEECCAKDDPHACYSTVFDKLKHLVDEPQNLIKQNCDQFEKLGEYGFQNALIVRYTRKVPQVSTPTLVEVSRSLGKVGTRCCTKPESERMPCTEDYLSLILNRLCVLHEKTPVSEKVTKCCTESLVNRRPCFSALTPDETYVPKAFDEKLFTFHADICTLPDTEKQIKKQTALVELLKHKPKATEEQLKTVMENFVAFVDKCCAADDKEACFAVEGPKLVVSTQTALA

recombinant rat NRP-1/Fc = molecular target: T1, recombinant rat NRP-1/Fc (rat; human, UniProt Q9QWJ9 22-854, limits assumed); assay: phage binding to immobilized receptor, recovery by bacterial infection
T1 construct: Bought receptor/Fc chimera; also called rat Neuropilin-1; neuropilin-1; not shown: Fc region of human IgG1
T1 sequence (looked up): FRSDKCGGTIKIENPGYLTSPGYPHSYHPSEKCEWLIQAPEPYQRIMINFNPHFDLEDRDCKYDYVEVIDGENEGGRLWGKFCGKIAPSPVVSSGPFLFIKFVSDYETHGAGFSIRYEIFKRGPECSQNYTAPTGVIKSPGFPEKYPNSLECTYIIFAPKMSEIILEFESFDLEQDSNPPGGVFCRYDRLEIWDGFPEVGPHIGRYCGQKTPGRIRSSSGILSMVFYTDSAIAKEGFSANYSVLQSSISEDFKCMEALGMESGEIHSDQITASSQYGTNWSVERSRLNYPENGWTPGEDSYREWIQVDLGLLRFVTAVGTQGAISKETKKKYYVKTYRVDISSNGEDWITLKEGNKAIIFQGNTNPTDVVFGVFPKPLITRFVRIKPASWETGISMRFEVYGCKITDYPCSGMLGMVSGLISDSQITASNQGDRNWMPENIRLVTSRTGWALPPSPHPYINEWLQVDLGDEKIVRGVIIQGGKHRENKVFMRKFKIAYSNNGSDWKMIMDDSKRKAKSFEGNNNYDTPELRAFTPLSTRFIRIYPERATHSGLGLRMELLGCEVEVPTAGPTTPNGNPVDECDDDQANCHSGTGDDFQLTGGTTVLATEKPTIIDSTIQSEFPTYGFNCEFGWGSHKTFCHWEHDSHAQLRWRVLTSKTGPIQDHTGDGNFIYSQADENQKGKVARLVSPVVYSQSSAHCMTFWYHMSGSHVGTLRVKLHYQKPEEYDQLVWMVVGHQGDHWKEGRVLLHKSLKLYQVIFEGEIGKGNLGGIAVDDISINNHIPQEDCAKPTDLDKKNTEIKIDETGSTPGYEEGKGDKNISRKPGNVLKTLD
Procedure: (§3) Human VEGFR-1, human VEGFR-2, rat NRP-1, and rat NRP-2 (1 μg in 50 μl of PBS) were immobilized on microtiter well plates overnight at 4° C. The wells were washed twice with PBS, blocked with PBS containing 3% BSA for 2 h at room temperature, and then incubated with 10⁹ TU of either […] […] (SEQ ID NO:11) phage, or fd-tet phage in 50 μl of PBS/1.5% BSA. After 1 hr at room temperature, wells were washed nine times with PBS and phage were recovered by bacterial infection. Serial dilutions were plated onto Luria-Bertani (LB) medium supplemented with tetracycline. VEGF₁₆₅, PDGF-BB, or synthetic peptides were used at the indicated concentrations and pre-incubated with the immobilized proteins to evaluate competitive inhibition of phage binding.

[3] = molecular target: T2, recombinant human VEGFR-2/Fc (human, UniProt P35968 20-764); assay: as above
T2 construct: Bought receptor/Fc chimera; not shown: Fc region of human IgG1
T2 sequence (P35968 20-764 limits assumed): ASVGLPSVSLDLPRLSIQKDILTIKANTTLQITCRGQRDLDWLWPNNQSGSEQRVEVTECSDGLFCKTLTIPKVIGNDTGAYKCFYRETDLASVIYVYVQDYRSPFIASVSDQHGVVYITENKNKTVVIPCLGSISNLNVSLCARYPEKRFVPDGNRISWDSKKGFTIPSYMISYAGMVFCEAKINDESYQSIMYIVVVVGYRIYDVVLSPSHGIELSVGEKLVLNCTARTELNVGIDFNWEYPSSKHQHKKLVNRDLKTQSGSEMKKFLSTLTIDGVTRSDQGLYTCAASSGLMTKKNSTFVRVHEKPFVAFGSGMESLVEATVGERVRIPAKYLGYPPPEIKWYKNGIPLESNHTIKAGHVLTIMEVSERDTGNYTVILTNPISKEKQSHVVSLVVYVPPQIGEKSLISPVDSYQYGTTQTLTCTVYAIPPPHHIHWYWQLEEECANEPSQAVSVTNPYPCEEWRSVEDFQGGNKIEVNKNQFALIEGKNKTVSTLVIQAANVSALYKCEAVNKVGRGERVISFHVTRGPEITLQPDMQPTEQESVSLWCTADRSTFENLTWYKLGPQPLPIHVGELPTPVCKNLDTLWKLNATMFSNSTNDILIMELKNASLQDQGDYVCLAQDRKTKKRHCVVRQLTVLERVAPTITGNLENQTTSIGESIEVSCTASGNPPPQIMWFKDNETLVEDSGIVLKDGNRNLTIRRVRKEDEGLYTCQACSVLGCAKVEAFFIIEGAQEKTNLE
Procedure: as §3

recombinant rat NRP-2/Fc = molecular target: T3, recombinant rat NRP-2/Fc (rat; human, UniProt O35276 23-858, limits assumed); assay: as above
T3 construct: Bought receptor/Fc chimera; also called neutropilin-2 (NRP-2) receptor; not shown: Fc region of human IgG1
T3 sequence (looked up): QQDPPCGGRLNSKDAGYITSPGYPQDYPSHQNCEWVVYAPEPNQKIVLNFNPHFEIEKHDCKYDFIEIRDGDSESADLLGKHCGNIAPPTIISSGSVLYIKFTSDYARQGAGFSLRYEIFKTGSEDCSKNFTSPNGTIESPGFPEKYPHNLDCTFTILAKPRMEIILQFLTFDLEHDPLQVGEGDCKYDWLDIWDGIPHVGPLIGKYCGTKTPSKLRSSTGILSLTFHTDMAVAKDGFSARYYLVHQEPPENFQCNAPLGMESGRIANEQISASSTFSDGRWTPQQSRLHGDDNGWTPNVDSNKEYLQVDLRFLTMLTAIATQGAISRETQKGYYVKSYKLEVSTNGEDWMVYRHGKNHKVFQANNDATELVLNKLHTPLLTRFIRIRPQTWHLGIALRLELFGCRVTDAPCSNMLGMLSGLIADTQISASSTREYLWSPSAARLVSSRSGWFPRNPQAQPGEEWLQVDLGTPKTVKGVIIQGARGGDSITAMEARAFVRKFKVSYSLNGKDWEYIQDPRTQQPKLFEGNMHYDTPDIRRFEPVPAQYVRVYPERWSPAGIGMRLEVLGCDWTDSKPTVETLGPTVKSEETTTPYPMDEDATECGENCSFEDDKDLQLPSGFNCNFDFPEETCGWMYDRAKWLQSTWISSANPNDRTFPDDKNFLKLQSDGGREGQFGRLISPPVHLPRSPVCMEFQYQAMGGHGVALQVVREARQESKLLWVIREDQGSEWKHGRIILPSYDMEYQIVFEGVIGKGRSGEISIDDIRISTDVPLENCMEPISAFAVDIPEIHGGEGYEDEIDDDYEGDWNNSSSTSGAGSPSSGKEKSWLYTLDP
Procedure: as §3

[4] = molecular target: T4, recombinant human VEGFR-1 (human, UniProt P17948 27-758, limits assumed); assay: phage binding to immobilized receptor, against insertless fd-tet phage (not shown)
T4 construct: Bought; immobilized on microtiter wells (1 ug in 50 ul PBS); also called Flt1
T4 sequence (P17948 27-758 limits assumed): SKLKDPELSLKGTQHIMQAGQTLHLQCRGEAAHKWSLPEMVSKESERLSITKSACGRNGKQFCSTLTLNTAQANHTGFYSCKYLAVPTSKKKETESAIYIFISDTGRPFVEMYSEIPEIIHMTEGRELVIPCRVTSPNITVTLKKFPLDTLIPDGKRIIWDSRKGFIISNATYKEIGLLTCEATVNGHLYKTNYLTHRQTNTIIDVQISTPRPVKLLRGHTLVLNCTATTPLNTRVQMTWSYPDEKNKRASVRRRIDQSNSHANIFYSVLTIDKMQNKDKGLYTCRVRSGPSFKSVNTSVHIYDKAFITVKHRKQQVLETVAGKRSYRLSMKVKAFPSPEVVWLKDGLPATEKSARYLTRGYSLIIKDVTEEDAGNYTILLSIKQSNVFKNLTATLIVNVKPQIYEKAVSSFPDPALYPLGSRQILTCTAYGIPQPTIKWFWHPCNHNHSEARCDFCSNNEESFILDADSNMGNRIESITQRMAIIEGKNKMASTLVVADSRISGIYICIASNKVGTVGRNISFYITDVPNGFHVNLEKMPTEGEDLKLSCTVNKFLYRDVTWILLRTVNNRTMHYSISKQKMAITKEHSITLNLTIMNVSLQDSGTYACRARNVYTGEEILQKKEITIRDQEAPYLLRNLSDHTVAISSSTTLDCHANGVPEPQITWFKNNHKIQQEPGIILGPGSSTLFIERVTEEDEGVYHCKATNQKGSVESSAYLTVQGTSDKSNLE
Procedure: as §3

## CGQEISGLC
[1]
  binding to T24 tumor cells: bound

## CLGWRAAAC
Human bone marrow cells
  binding to human bone marrow cells: over twice as high as the positive control

## CWGGLSGLC
Porcine bladder mucosa
  increase of phage binding after GAG-removal: 4.2 fold
Human ureter mucosa
  increase of phage binding after GAG-removal: 3.4 fold

## DLLHLLAFSKSCSLLP
leptin
  leptin activity in vivo: block leptin activity

B1: phage clone-19 displaying the peptide CPQPRPLC (SEQ ID NO:6) (peptide)
peptide: CPQPRPLC
modifications: not fully specified (bridges); cysteine pairing not given here; also: displayed on pIII of filamentous phage
notes: Tested as whole filamentous phage (10^9 TU per well), not as free peptide; The peptide is expressed in the pIII protein; also called clone 19 phage; not shown: The phage pIII coat protein that carries the insert, and the residues flanking the insert
[2]
  binding result: no binding (tested: 10^9 TU of phage in 50 ul)
Recombinant rat NRP-1/Fc
  binding result: binds
[3]
  binding result: no binding (tested: 10^9 TU of phage in 50 ul)
Recombinant rat NRP-2/Fc
  binding result: no binding (tested: 10^9 TU of phage in 50 ul)
[4]
  fold enrichment of binding over fd-tet phage: > 1000 fold
